Test results: patent US20240075093A1, “COMPOSITIONS AND METHODS OF TREATING A PI3K MEDIATED DISEASE” (VIRGINIA TECH INTELLECTUAL PROPERTIES, INC., priority 2020, published 2024)

Assays:
p110b = p110b (Homo sapiens, UniProt P42338); assay: p110b activity ELISA (cell-free kinase assay); assay type: biochemical
Excerpt: The activity of the p110b PI3K catalytic subunit was monitored via ELISA upon increasing doses of Ante-Selectide-18.
(§1) Relative activity is the ratio of respective treated groups to their non-treated controls.
(FIG. 51A) 3D of a p110β/p85α complex determined by SWISS-MODEL and Cluspro. (FIG. 51B) Protein sequences were aligned using COBALT. C2 domains (top) are show. Red bars: same residues; Grey bars: different residues; Red lines: missing residues. […] in p110β C2 (bottom) is shown and termed as 018. Docking of p110β and p85α (FIG. 51C) or p110α and p85α (FIG. 51D) was done by SWISS-MODEL, Cluspro, and Chimera. The 018 motif is labeled in magenta. Deletion of β18 motif (FIG. 51E) changed the 3D shapes of p110β/p85 (FIG. 51C). (FIG. 51F) p110β cell-free kinase assay. An enzyme-linked immunosorbent assay (ELISA) was used to measure levels of lipids PIP2/PIP3. (FIG. 51G) Effect of PI3K inhibitors on p110s using ELISA. p110β (FIG. 51H) or p110α (FIG. 51I) was docked with Selectide-18-bound p85α using Cluspro/Chimera.
(§2) Applicant also included a control scramble peptide containing the antennapedia sequence followed by the amino acid sequence of Ante-Selectide-18 randomly scrambled. […] Applicant reports that this drug is not effective at inhibiting the kinase activity of p110b or other PI3K subunits at 100 nM, showing the promise of the Ante-Selectide-18 peptide as a potent selective p110b inhibitor at a low dose.

p110c = p110c (Homo sapiens, UniProt P42336); assay: PI3K subunit activity ELISA; assay type: biochemical; details: 100 nM
Protocol: as §1, §2

p110γ = p110γ (Homo sapiens, UniProt P48736); assay: PI3K subunit activity ELISA; assay type: biochemical; details: 100 nM
Protocol: as §1, §2

p110δ = p110δ (Homo sapiens, UniProt O00329); assay: PI3K subunit activity ELISA; assay type: biochemical; details: 100 nM
Protocol: as §1, §2

U87MG cells = assay: MTS cell viability assay; assay type: cell-based, human; details: 20 uM TGX-221 and 50 uM TMZ, 4 days, MTS
Protocol: (§3) Cell viability was measured by the MTS assay. P values were determined using the student t test or one-way ANOVA. Error bars represent three independent experiments.
Cell viability was determined using the MTS viability assay. The vehicle DMSO was the control and set as 100%. Treated cells were normalized to DMSO-treated cells. […] (FIG. 43D) Scores of Excess Over Bliss in FIG. 43C calculated using the Bliss Independence model. One-way ANOVA and student t test were used to determine statistical significance.
(§4) Cell viability was determined by the MTS cell viability assay (Promega) as described previously 21,24-27. In brief, 250 to 1,000 cells were plated in the wells of a 96-well plate-based upon the cell growth rate. Because the drug treatment usually takes 6-7 days, fast-growing cells could be over-grown if plated at a high cell density. For αCT1 treatment experiments, Applicant intended to plate cells at a low density to minimize the formation of gap junctions, and thus, more Cx43-hemichannels can be present. […] At each hour time point, the absorbance at 490 nm was measured using a FilterMax F3 microplate reader (Molecular Devices, LLC) according to the manufacturer's instructions. Percent cell viability was obtained by dividing the absorbance of treatment groups to those of untreated and respective vehicle control groups.

astrocytes = assay: MTS cell viability assay; assay type: cell-based, human; details: 20 uM TGX-221 and 50 uM TMZ, 4 days
Protocol: as §3
(FIG. 46A) The effect of the αCT1/GSK/TMZ combo in VTC-103 cells. […] (FIG. 46B) The effect of the αCT1/GSK/TMZ combo in LN229 cells. (FIG. 46C) EOB scores of drug combinations in VTC-103 and LN229 cells. […] (FIG. 46E) EOB scores of drug combinations in astrocytes. One-way ANOVA with Dunnett test for correction of multiple comparisons or Student's t test was used to determine statistical significance. *: P<0.05; ns: not significant. Drug combinations with strong synergistic effect were marked in red.
as §4, with “density.” for “density. For αCT1 treatment experiments, Applicant intended to plate cells at a low density to minimize the formation of gap junctions, and thus, more Cx43-hemichannels can be present.”

LN229/GSCs = assay: wound-healing (migration) assay; assay type: cell-based; details: 8 μM, 24 hours
Protocol: (§5) (FIG. 8A) Wound-healing assay. Cells were plated confluently and then treated with PI3K isoform-selective inhibitors at 8 μM for 24 hours. Cells were imaged at 0- and 24-hour time point. Images of 24-hour time point are shown. Scale bar: […]. (FIG. 8B-8D) Quantification of migration distance. Images from three different areas were analyzed using Image J. Migration distances were obtained by subtracting 24-hour measurements with those of 0-hour.

SF295 cells = assay: wound-healing (migration) assay; assay type: cell-based; details: 8 μM, 24 hours
Protocol: as §5

[1] = test system: PI3K/AKT signaling in SF295 cells; assay: immunoblotting of PI3K/AKT signaling in SF295 cells; assay type: cell-based

Sequence of p110b (P42338 whole entry): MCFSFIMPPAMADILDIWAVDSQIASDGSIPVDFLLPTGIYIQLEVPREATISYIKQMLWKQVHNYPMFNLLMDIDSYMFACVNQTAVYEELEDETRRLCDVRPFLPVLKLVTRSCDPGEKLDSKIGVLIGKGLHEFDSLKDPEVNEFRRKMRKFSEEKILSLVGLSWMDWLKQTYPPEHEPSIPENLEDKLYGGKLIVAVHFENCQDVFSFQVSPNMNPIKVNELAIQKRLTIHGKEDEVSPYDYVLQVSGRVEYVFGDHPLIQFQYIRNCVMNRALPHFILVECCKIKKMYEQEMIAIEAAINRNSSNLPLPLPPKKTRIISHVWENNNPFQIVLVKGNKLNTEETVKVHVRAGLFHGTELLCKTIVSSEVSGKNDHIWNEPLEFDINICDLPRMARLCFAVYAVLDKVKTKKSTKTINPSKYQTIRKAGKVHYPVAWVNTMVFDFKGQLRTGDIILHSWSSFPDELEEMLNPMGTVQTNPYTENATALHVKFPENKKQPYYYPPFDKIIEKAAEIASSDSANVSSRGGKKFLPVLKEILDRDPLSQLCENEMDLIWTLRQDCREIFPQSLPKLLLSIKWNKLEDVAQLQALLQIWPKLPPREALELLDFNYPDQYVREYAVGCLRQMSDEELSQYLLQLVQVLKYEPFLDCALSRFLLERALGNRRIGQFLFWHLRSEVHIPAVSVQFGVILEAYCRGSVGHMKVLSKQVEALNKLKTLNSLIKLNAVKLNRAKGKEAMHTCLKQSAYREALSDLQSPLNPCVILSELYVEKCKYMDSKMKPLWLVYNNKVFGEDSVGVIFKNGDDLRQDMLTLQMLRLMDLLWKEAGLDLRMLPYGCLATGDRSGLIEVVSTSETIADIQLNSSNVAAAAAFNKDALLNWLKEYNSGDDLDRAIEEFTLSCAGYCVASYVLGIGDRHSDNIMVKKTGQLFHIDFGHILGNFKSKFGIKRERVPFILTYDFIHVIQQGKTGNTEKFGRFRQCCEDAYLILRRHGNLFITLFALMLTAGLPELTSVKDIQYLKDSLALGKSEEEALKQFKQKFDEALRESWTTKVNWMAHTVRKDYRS
Sequence of p110c (P42336 whole entry): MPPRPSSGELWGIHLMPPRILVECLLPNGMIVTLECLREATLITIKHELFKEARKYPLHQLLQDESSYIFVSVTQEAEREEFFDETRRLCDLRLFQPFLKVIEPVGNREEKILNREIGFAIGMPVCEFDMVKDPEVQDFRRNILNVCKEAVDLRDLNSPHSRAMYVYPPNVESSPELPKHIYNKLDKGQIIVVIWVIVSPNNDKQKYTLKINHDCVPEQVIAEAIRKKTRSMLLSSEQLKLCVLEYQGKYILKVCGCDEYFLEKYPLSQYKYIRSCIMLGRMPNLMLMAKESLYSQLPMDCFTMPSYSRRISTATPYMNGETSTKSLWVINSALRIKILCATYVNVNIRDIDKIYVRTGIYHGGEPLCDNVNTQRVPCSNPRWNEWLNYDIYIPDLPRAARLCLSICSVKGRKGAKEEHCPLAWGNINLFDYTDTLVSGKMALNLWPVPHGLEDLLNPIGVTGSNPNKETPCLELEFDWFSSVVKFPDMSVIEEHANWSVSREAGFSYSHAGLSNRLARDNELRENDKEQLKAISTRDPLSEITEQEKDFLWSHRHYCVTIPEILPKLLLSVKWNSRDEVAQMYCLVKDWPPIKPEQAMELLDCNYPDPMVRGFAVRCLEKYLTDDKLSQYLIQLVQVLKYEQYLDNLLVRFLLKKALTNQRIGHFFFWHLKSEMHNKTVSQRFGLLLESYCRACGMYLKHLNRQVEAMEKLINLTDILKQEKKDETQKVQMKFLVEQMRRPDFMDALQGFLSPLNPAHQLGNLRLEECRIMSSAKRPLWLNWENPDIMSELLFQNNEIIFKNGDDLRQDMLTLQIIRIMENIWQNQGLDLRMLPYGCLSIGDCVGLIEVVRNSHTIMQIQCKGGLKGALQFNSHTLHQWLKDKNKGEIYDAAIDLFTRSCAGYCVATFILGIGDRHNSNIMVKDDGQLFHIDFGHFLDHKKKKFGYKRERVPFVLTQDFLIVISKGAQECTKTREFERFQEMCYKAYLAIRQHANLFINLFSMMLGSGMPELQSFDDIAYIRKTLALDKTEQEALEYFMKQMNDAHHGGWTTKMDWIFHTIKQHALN
Sequence of p110δ (O00329 whole entry): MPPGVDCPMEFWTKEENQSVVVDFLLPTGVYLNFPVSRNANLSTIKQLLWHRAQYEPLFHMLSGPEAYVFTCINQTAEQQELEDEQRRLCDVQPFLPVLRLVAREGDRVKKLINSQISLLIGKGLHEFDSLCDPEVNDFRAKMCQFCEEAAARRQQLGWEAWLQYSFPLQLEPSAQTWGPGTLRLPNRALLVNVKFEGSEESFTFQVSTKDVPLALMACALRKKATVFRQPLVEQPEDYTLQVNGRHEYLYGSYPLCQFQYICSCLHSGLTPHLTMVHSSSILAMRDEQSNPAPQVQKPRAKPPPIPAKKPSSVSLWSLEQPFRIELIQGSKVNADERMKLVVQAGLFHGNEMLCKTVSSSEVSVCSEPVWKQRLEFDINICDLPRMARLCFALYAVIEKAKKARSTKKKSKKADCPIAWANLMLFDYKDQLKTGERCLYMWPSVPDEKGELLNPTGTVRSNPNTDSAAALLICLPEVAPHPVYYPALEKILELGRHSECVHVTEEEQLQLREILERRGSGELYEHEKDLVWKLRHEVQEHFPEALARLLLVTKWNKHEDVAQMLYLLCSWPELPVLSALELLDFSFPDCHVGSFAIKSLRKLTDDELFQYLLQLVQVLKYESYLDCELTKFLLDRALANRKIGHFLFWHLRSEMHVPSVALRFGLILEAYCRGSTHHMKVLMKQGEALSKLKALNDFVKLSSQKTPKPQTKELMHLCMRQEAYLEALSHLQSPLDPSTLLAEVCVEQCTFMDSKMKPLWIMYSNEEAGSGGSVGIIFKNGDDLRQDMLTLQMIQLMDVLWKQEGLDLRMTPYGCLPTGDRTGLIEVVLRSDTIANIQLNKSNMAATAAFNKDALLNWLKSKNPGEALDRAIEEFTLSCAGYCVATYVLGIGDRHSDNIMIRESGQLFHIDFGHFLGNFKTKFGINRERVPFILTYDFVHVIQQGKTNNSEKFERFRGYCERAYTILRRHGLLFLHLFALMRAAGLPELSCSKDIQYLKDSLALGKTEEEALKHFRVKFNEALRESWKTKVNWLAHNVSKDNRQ
Sequence of p110δ (P27986 whole entry partner): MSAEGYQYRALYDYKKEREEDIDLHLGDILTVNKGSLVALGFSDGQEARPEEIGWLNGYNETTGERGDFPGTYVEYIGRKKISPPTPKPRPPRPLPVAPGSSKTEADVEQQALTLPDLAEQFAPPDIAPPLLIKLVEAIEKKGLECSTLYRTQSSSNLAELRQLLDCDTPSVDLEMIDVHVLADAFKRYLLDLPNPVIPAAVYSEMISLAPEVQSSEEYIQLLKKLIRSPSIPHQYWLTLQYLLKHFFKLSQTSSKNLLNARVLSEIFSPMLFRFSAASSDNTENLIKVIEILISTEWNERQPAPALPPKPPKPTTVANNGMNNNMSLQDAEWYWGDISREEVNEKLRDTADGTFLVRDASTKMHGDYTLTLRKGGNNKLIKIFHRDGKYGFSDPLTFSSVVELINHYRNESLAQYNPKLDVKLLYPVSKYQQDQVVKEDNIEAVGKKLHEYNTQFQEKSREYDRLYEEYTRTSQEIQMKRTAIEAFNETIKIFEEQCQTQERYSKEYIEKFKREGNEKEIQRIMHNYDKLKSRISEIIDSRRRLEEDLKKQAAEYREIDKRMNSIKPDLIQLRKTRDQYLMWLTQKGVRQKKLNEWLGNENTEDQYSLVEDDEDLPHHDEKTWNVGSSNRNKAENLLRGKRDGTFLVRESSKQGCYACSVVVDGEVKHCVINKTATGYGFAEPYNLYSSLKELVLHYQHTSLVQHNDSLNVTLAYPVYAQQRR
Sequence of p110γ (P48736 whole entry): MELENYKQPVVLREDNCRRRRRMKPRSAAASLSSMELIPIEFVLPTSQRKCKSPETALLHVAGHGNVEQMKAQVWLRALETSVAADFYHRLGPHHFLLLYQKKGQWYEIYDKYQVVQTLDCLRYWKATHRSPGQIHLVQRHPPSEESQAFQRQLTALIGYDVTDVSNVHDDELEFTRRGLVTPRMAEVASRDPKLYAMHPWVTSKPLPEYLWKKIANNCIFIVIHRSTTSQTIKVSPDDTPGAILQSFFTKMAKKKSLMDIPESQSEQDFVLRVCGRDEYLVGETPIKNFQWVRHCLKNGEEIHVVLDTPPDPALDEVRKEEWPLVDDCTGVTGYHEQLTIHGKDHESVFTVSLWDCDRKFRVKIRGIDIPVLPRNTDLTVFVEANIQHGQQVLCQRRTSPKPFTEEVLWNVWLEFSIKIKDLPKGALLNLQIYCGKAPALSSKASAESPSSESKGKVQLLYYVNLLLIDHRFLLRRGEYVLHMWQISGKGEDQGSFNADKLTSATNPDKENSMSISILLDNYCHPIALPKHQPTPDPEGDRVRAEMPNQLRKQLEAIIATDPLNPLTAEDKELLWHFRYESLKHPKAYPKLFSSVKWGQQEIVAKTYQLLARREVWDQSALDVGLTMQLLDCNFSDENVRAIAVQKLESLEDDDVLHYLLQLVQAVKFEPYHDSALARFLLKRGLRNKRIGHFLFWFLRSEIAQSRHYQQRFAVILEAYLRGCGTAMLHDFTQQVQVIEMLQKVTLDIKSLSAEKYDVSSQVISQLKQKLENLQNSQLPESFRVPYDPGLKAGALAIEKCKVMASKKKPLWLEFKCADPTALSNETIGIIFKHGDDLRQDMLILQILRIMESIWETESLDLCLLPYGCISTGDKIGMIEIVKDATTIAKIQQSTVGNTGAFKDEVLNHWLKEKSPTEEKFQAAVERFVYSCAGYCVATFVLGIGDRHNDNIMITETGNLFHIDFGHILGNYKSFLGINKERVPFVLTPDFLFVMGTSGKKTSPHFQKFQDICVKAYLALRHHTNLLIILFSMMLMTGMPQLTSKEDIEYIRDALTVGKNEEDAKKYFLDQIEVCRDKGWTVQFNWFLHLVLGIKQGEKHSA

In the case of Cc1cc(C(C)Nc2ccccc2)c2nc(N3CCOCC3)cc(=O)n2c1 (stereo not drawn) [TGX-221], the “activity of p110β” value (p110b; 10 nM TGX-221, ELISA) is reported as “didn't inactivate p110β”, the “activity of p110b” value (p110b; 100 nM, ELISA, isolated protein subunit) is reported as “not effective” and the “activity of PI3K subunit p110c” value (p110c) is reported as “not effective”. The “activity of PI3K subunit p110γ” value (p110γ) was “not effective”, the “activity of PI3K subunit p110δ” value (p110δ) was “not effective” and the TMZ sensitivity (U87MG cells) was “increased TMZ sensitivity”. For the same compound, the “effect of TGX-221 plus TMZ combination on astrocytes” value (astrocytes) was “did not harm astrocytes”, the cell migration (LN229/GSCs) was “inhibited the migration” and the cell migration (SF295 cells) was “inhibited the migration”. The “AKT and RAC1/CDC42 activity” value ([1]; 8 μM TGX-221, 24 hours) was “inactivated”, the “protein levels of MMP2” value ([1]; 8 μM TGX-221, 24 hours) was “not” and the “protein levels of MMP9” value ([1]; 8 μM TGX-221, 24 hours) was “decreased protein levels”. The “BIM-EL, BIM-L, BIM-S (apoptotic forms of BIM)” value ([1]; 25 μM TGX-221, 96 hours) was “remarkable increase”, the “cleaved caspase 3 (c-CASP3)” value ([1]; 25 μM TGX-221, 96 hours) was “remarkable increase” and the “levels of pFOXO3T32” value ([1]; 25 μM TGX-221, 96 hours) was “significantly decreased”.
